In publication PMC4303209, “A novel phosphatidylinositol 3-kinase (PI3K) inhibitor directs a potent FOXO-dependent, p53-independent cell cycle arrest phenotype characterized by the differential induction of a subset of FOXO-regulated genes” (Breast Cancer Research : BCR, 2014):

Tested on: MCF-7 breast cancer cells
Assay: Microarray gene expression analysis (Agilent whole human genome 4 x 44K; compound vs DMSO, LIMMA log2 fold change)
Type: cell-based
Details: Apoptosis genes

Oc1cccc(-c2nc(N3CCOCC3)c3oc4ncccc4c3n2)c1 [PI-103]
HSPD1 log2FC (Gene 3329): -0.080 | HSPE1 log2FC (Gene 3336): -0.309 | HTR2B log2FC (Gene 3357): -0.397 | IAPP log2FC (Gene 3375): -0.066 | ID1 log2FC (Gene 3397): 0.070 | ID3 log2FC (Gene 3399): -0.082 | IFI16 log2FC (Gene 3428): 0.334 | IFI27 log2FC (Gene 3429): -0.196 | IFIT2 log2FC (Gene 3433): 1.643 | IFIT3 log2FC (Gene 3437): 0.140 | IFNG log2FC (Gene 3458): -0.040 | IGBP1 log2FC (Gene 3476): 0.178 | IGF1 log2FC (Gene 3479): 0.051 | IGF1R log2FC (Gene 3480): 0.084 | IGF2R log2FC (Gene 3482): 0.351 | IGFBP3 log2FC (Gene 3486): 0.086 | IKBKB log2FC (Gene 3551): 0.122 | IL1B log2FC (Gene 3553): 0.035 | IL1RN log2FC (Gene 3557): -0.235 | IL2 log2FC (Gene 3558): -0.008 | IL4 log2FC (Gene 3565): -0.010 | IL6 log2FC (Gene 3569): 0.006 | IL6R log2FC (Gene 3570): 0.551 | IL6ST log2FC (Gene 3572): 0.257 | IL7 log2FC (Gene 3574): 0.210 | IL10 log2FC (Gene 3586): -0.050 | TNFRSF9 log2FC (Gene 3604): -0.328 | ING2 log2FC (Gene 3622): 0.264 | INHBA log2FC (Gene 3624): -0.687 | INHBB log2FC (Gene 3625): -0.799 | INS log2FC (Gene 3630): -0.043 | INPP5D log2FC (Gene 3635): -0.048 | INSL3 log2FC (Gene 3640): -0.069 | IRAK1 log2FC (Gene 3654): -0.233 | IRF1 log2FC (Gene 3659): -0.382 | IRF3 log2FC (Gene 3661): -0.472 | IRF5 log2FC (Gene 3663): 1.340 | IRF7 log2FC (Gene 3665): 0.353 | ITGA1 log2FC (Gene 3672): 0.190 | ITGA5 log2FC (Gene 3678): -0.454 | ITGAV log2FC (Gene 3685): 0.599 | ITGB1 log2FC (Gene 3688): 0.583 | ITPR1 log2FC (Gene 3708): 0.249 | JAG2 log2FC (Gene 3714): 0.522 | JAK2 log2FC (Gene 3717): 0.369 | JAK3 log2FC (Gene 3718): -0.043 | JUN log2FC (Gene 3725): -0.937 | KCNMA1 log2FC (Gene 3778): 0.170 | KNG1 log2FC (Gene 3827): -0.057 | KPNA1 log2FC (Gene 3836): -0.280 | KPNB1 log2FC (Gene 3837): 0.240 | KRT8 log2FC (Gene 3856): -0.277 | KRT18 log2FC (Gene 3875): -0.442 | LCK log2FC (Gene 3932): -0.114 | LEP log2FC (Gene 3952): -0.051 | LGALS7 log2FC (Gene 3963): -0.229 | LIG4 log2FC (Gene 3981): 0.035 | LMNA log2FC (Gene 4000): -0.013 | LMNB1 log2FC (Gene 4001): -0.018 | LRP6 log2FC (Gene 4040): -0.118 | LTBR log2FC (Gene 4055): -0.111 | LTK log2FC (Gene 4058): -0.062 | LYN log2FC (Gene 4067): -0.359 | SMAD3 log2FC (Gene 4088): 0.243 | SMAD6 log2FC (Gene 4091): 0.083 | MAL log2FC (Gene 4118): -0.429 | MAX log2FC (Gene 4149): -0.351 | MCF2 log2FC (Gene 4168): 0.031 | MCL1 log2FC (Gene 4170): -1.349 | MDK log2FC (Gene 4192): 0.235 | MDM2 log2FC (Gene 4193): -0.113 | MECP2 log2FC (Gene 4204): -0.128 | MEF2A log2FC (Gene 4205): -0.174 | MEF2C log2FC (Gene 4208): 0.238 | MEF2D log2FC (Gene 4209): -0.520 | MAP3K5 log2FC (Gene 4217): -0.660 | MEN1 log2FC (Gene 4221): 0.029 | KITLG log2FC (Gene 4254): -0.218 | MGMT log2FC (Gene 4255): -0.055 | MIF log2FC (Gene 4282): 0.230 | MLH1 log2FC (Gene 4292): 0.343 | MAP3K9 log2FC (Gene 4293): -0.693 | MAP3K10 log2FC (Gene 4294): 0.639 | MAP3K11 log2FC (Gene 4296): -0.577 | MMP9 log2FC (Gene 4318): -0.279 | MNAT1 log2FC (Gene 4331): 0.589 | MNT log2FC (Gene 4335): 1.538 | MPO log2FC (Gene 4353): -0.006 | CITED1 log2FC (Gene 4435): -0.101 | MSH2 log2FC (Gene 4436): 0.786 | MSX1 log2FC (Gene 4487): -0.243 | MUC1 log2FC (Gene 4582): -0.282 | MUC2 log2FC (Gene 4583): -0.081 | MUC5AC log2FC (Gene 4586): -0.288 | MUSK log2FC (Gene 4593): -0.262 | MX1 log2FC (Gene 4599): 0.148 | MYC log2FC (Gene 4609): 0.421 | MYD88 log2FC (Gene 4615): -0.601 | GADD45B log2FC (Gene 4616): 0.857 | NBN log2FC (Gene 4683): 0.619 | NDUFS1 log2FC (Gene 4719): 0.294 | NF1 log2FC (Gene 4763): 0.451 | NFATC4 log2FC (Gene 4776): 0.296 | NFE2L2 log2FC (Gene 4780): 0.540 | NFKB1 log2FC (Gene 4790): -0.256 | NFKBIA log2FC (Gene 4792): -0.656 | NGFR log2FC (Gene 4804): -0.069 | NKX3-1 log2FC (Gene 4824): -0.386 | NME1 log2FC (Gene 4830): 0.199 | NME2 log2FC (Gene 4831): 0.205 | NME3 log2FC (Gene 4832): -0.013 | NMT1 log2FC (Gene 4836): -0.214 | NODAL log2FC (Gene 4838): -0.025 | NOS3 log2FC (Gene 4846): -0.168 | NOTCH2 log2FC (Gene 4853): 0.274 | NPM1 log2FC (Gene 4869): 0.282 | NPTX1 log2FC (Gene 4884): -0.756 | NPY5R log2FC (Gene 4889): -0.042 | SLC11A2 log2FC (Gene 4891): 0.320 | NRAS log2FC (Gene 4893): -0.535 | NTF3 log2FC (Gene 4908): -1.099 | NTRK2 log2FC (Gene 4915): -0.265 | NR4A2 log2FC (Gene 4929): 0.442 | OCLN log2FC (Gene 4950): 0.409 | OPA1 log2FC (Gene 4976): 0.350 | TNFRSF11B log2FC (Gene 4982): 0.966 | OSM log2FC (Gene 5008): -0.008 | P2RX1 log2FC (Gene 5023): -0.016 | P2RX4 log2FC (Gene 5025): 0.348 | P2RX7 log2FC (Gene 5027): -0.319 | SERPINB2 log2FC (Gene 5055): -0.093 | PAK1 log2FC (Gene 5058): 0.071 | PAK2 log2FC (Gene 5062): -0.103 | PARK2 log2FC (Gene 5071): -0.149 | PAWR log2FC (Gene 5074): 0.876 | PAX3 log2FC (Gene 5077): -0.114 | PAX4 log2FC (Gene 5078): -0.073 | PAX7 log2FC (Gene 5081): -0.197 | PCNT log2FC (Gene 5116): 0.446 | PDCD1 log2FC (Gene 5133): -0.284 | PDCD2 log2FC (Gene 5134): -0.282 | PDE1A log2FC (Gene 5136): -0.171 | PDK1 log2FC (Gene 5163): 0.405 | PDK2 log2FC (Gene 5164): 1.524 | PDK4 log2FC (Gene 5166): 0.866 | PDPK1 log2FC (Gene 5170): 0.478 | PHB log2FC (Gene 5245): -0.382 | SERPINB9 log2FC (Gene 5272): -0.438 | SERPINB10 log2FC (Gene 5273): 0.028 | PIK3CA log2FC (Gene 5290): 0.818 | PIM1 log2FC (Gene 5292): 1.292 | PIK3R1 log2FC (Gene 5295): 0.203 | PLAGL1 log2FC (Gene 5325): 0.317 | PLAGL2 log2FC (Gene 5326): -1.296 | PLK1 log2FC (Gene 5347): -0.016 | PLSCR1 log2FC (Gene 5359): 0.371 | PMAIP1 log2FC (Gene 5366): -1.121
